From patent US20240182475A1 (Université de Lausanne, priority 2021, published 2024)

Legend:
recombinant human CSE = recombinant human CSE (Homo sapiens, UniProt P32929); assay: CSE activity (AzMC probe assay), H2S production by recombinant human CSE; type: biochemical; conditions: for CSE activity (AZMC probe assay) % of activation: (RFU compound max - RFU compound 0/RFU CSE 2 ug - RFU compound 0)*100; for EC50: EC50 calculated by the four-parameter logistic model
Method: The activity of recombinant human CSE (rCSE) was tested in the presence of C5, compound 8 (50 uM), Z20 compound 13 (50 uM) or vehicle (DMSO). Briefly, compounds were added in reaction buffer (50 mM Tris-HCl, pH 8) containing 2 μg of rCSE, 10 mM CSE substrate L-cysteine, 5 uM pyridoxal 5′-phosphate (PLP). After addition of 10 μM of the H2S sensitive fluorescent probe 7-azido-4-methylcoumarin (AzMC) in a total volume of 100 μl, fluorescence was immediately measured in kinetic mode for 2 h at 37° C. with SpectraMax M5 reader, with excitation and emission wavelengths of 365 nm and 450 nm, respectively. Statistical analysis was determined using simple linear regression with p<0.0001 for C5 vs. vehicle and p<0.0002 for Z20 vs. vehicle.
Recombinant human CSE (1 μg/well) was incubated with various concentrations of compounds (all in final 0.1% DMSO), or with 0.1% DMSO as a control, in 10 mM sodium phosphate buffer pH 8.2. Next, 10 mM L-cysteine and 1 mM PLP and 10 μM of the probe AzMC were then added to reach 100 μL total volume. Fluorescence was measured for 3 h at 37° C. with excitation and emission wavelengths of 365 nm and 450 nm, respectively, in a 96-well half area black plate with transparent bottom.
Dose-response curve of each compound was performed, using triplicate wells for each tested doses. The background (10 mM sodium phosphate buffer with L-cysteine, PLP and AzMC) was subtracted from all values. Each mean value was converted to percent activity (0% defined as the smallest mean in each data set, 100% defined as the highest mean in each data set). The data were normalized using the four parameter logistic model (4PL) equation to calculate EC50 using GraphPad Prism.

MOVAS cells [1] = assay: Cytotoxicity assay, LDH release; type: cell-based, mouse
Method: A) Alizarin red staining of MOVAS cells stimulated with CPP for 24 h in DMEM+10% FBS in presence of different concentrations of compound 22401. […] The background (Alizarin red staining obtained with cells in the absence of CPP) was subtracted from all values. B) Percentage of cytotoxicity, as measured by LDH release, in MOVAS cells in the same conditions as A). Statistical analysis was determined using one-way ANOVA with *p<0.05, **p<0.01, ***p<0.001.
Measurement of lactate dehydrogenase (LDH) as a means of cytotoxicity assay was performed with using CytoTox-ONE Homogeneous Membrane Integrity Assay (Promega) according to the manufacturer's instructions. Values were calculated as percentage of cytotoxicity using the following formula: [(value in sample)−(background)]/[(value in Triton X-100-treated sample)−(background)]×100.

MOVAS cells [2] = assay: MOVAS cell calcification assay (Alizarin red); type: cell-based, mouse; conditions: Mus musculus, MOVAS, read-out: Calcification assay Max calcification inhibition (%) at the indicated dose of compound
Method: A) Alizarin red staining of MOVAS cells stimulated with sCPP for 24 h in DMEM+10% FBS and treated or not with 50 uM of compounds. […] Statistical analysis was determined using one-way ANOVA with ***p<0.001. C) Percentage of cytotoxicity (LDH %) in MOVAS treated or not with compounds for 24 h. D) MOVAS cells were seeded onto half-area 96-well plate and incubated overnight. Then C5 or C6 at 50 uM or vehicle (DMSO), L-cysteine at 10 mM, PLP at 5 uM and the H2S sensitive fluorescent probe AzMC at 10 μM were added. The fluorescence was immediately measured in kinetic mode for 2 h at 37° C. with SpectraMax M5 reader, with excitation and emission wavelengths of 365 nm and 450 nm, respectively.
A) Alizarin red staining of Movas cells stimulated with sCPP for 24 h in DMEM+10% FBS and treated or not with 50 uM of Z20. […] C) Percentage of cytotoxicity (LDH %) in murine chondrocytes treated or not with Z20 for 24 h. Statistical analysis was determined using one-way ANOVA with ***p<0.001.
Alizarin red staining of MOVAS cells stimulated with sCPP for 24 h in DMEM+10% FBS and treated or not with different concentrations of compounds (A: C6) and (B: Z20). The graphs show Alizarin red absorbance at 570-630 nm. Statistical analysis was determined using one-way ANOVA with *p<0.05, **p<0.01, ***p<0.001.
CPP were generated by preparing 20 ml DMEM containing 10% FBS, 1 mmol/L CaCl2, 3.5 mmol/L inorganic phosphate (1.36 mmol/L NaH2PO4 and 2.14 mmol/L Na2HPO4) (Aghagolzadeh et al. Atherosclerosis, 2016). After 7 days incubation at 37° C., the suspension was centrifuged at 25000 g for 2 h at 4° C., and the pellet containing CPP was resuspended in 1 ml DMEM and stored at −20° C. until further use.
Mouse vascular smooth muscle cell line (MOVAS) cells were cultured according to the manufacturer's guidelines in DMEM culture medium supplemented with 10% FBS. Cells were cultured at 37° C. in a humidified atmosphere with 5% CO2. All cell culture experiments in 96-well plates were performed in triplicates and were repeated independently two times.
For calcification experiments, cells were seeded in 96-well plates at a density of 50,000 cells/well and left to attach for 18 h. Calcification of cell monolayers was induced by CPP (equivalent to 50 μg Ca/mL) for 24 h at 37° C., 5% CO2 in presence of various concentrations of compounds (all in final 0.1% DMSO), or of 0.1% DMSO as a control, to reach a final volume of 200 μl/well. Calcium deposition was assessed by 0.5% w/v Alizarin Red staining (pH 4.2). Briefly, after PBS washing, methanol fixation for 10 min at 4° C., and milli-Q water washing, cells were incubated for 60 min with 200 μL Alizarin Red solution and then washed four times with milli-Q water. Quantification was performed after crystal dissolution with cetylpyridinium chloride (10%) for 18 h. The absorbance was measured at 570 and 630 nm using the Spectramax M5e reader (Molecular Devices). The background (alizarin red staining obtained with cells in the absence of CPP) was subtracted from all values.

Chain of recombinant human CSE (P32929 whole entry): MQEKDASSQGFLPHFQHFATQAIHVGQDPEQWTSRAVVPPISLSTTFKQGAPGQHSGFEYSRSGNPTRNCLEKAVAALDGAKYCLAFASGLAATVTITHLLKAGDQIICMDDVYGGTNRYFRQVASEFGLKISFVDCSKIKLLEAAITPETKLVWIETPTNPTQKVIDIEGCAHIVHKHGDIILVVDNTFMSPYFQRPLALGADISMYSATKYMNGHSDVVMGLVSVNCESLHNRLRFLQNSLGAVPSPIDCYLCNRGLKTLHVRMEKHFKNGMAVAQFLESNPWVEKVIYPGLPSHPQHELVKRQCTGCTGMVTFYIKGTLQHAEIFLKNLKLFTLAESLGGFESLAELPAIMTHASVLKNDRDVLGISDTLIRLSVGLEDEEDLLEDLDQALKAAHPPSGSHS

Structure (SMILES)	CSE activity (AZMC probe assay) % of activation (recombinant human CSE)	EC50 (recombinant human CSE)	Cytotoxicity assay LDH release (% of cytotoxicity) (MOVAS cells [1]; no dose given)	also measured
CCn1cnc2c(Nc3cnn(CC4CCCO4)c3)ncnc21 (stereo not shown) [Compound 19, 9-ethyl-N-(1-((tetrahydrofuran-2-yl)methyl)-1H-pyrazol-4-yl)-9H-purin-6-amine]	28%	41.8 nM		Cytotoxicity assay LDH release (% of cytotoxicity) (MOVAS cells [1]; at 50 uM): 15% at; inhibition at 50 µM (MOVAS cells [2]; at 50 uM): 48%
c1cc(Nc2cnn(CC3CCCO3)c2)ncn1 (stereo not shown) [Compound 20, N-(1-((tetrahydrofuran-2-yl)methyl)-1H-pyrazol-4-yl)pyrimidin-4-amine]	46%	21 nM		Cytotoxicity assay LDH release (% of cytotoxicity) (MOVAS cells [1]; at 20 uM): 16% at; inhibition at 20 µM (MOVAS cells [2]): 23%
CCn1cnc2c(Nc3cnn(C)c3)ncnc21 [Compound 25, 9-ethyl-N-(1-methyl-1H-pyrazol-4-yl)-9H-purin-6-amine]	56%	26 nM	20%	
Cn1cc(Nc2ncccn2)cn1 [Compound 26, N-(1-methyl-1H-pyrazol-4-yl)pyrimidin-2-amine]	57%	38.5 nM	20%	
CCn1cnc2c(Nc3cnn(CC4CCCCC4)c3)ncnc21 [Compound 30, N-(1-(cyclohexylmethyl)-1H-pyrazol-4-yl)-9-ethyl-9H-purin-6-amine]	39%	31.8 nM		Cytotoxicity assay LDH release (% of cytotoxicity) (MOVAS cells [1]; at 20 uM): 5% at; inhibition at 20 µM (MOVAS cells [2]): 80%
c1cnc(Nc2cnn(CC3CCCCC3)c2)nc1 [Compound 31, N-(1-(cyclohexylmethyl)-1H-pyrazol-4-yl)pyrimidin-2-amine]	61%	67.4 nM	15%	
c1cnc(Nc2cnn(CC3CCCO3)c2)nc1 (stereo not shown) [Compound 32]	76%	35.2 nM		Cytotoxicity assay LDH release (% of cytotoxicity) (MOVAS cells [1]; at 2 uM): 15% at; inhibition at 2 µM (MOVAS cells [2]; at 2 uM): 36%
CCCn1cc(Nc2ncnc3c2ncn3CC)cn1 [Compound 33, 9-ethyl-N-(1-propyl-1H-pyrazol-4-yl)-9H-purin-6-amine]	59%	19.7 nM	20%	
CCn1cnc2c(Nc3cnn(Cc4ccccn4)c3)ncnc21 [Compound 34, 9-ethyl-N-(1-(pyridin-2-ylmethyl)-1H-pyrazol-4-yl)-9H-purin-6-amine]	35%	31.7 nM	20%	
O=[N+]([O-])c1ccc(Nc2cnn(CC3CCCO3)c2)cc1 (stereo not shown) [Compound 35, N-(4-nitrophenyl)-1-((tetrahydrofuran-2-yl)methyl)-1H-pyrazol-4-amine]	109%	43 nM		Cytotoxicity assay LDH release (% of cytotoxicity) (MOVAS cells [1]; at 0.3 uM): 4% at; inhibition at 0.3 µM (MOVAS cells [2]): 23%
O=C(Nc1cnn(CC2CCCO2)c1)c1ccccc1 (stereo not shown) [Compound 36, N-(1-((tetrahydrofuran-2-yl)methyl)-1H-pyrazol-4-yl)benzamide]	62%	15.8 nM		Cytotoxicity assay LDH release (% of cytotoxicity) (MOVAS cells [1]; at 0.07 uM): 12% at; inhibition at 0.07 µM (MOVAS cells [2]; at 0.07 uM): 42%
O=C(Nc1cnn(CC2CCCO2)c1)c1cccc(F)c1 (stereo not shown) [Compound 39, 3-fluoro-N-(1-((tetrahydrofuran-2-yl)methyl)-1H-pyrazol-4-yl)benzamide]	33%	137 nM		Cytotoxicity assay LDH release (% of cytotoxicity) (MOVAS cells [1]; at 20 uM): 8% at; inhibition at 20 µM (MOVAS cells [2]): 30%
O=C(Nc1cnn(CC2CCCO2)c1)c1ccc2ccccc2c1 (stereo not shown) [Compound 40, N-(1-((tetrahydrofuran-2-yl)methyl)-1H-pyrazol-4-yl)-2-naphthamide]	65%	4.4 nM		Cytotoxicity assay LDH release (% of cytotoxicity) (MOVAS cells [1]; at 0.3 uM): 10% at; inhibition at 0.3 µM (MOVAS cells [2]): 56%
O=C(Nc1cnn(CC2CCCO2)c1)c1cccc2[nH]ccc12 (stereo not shown) [Compound 44, N-(1-((tetrahydrofuran-2-yl)methyl)-1H-pyrazol-4-yl)-1H-indole-4-carboxamide]	73%	29 nM		Cytotoxicity assay LDH release (% of cytotoxicity) (MOVAS cells [1]; at 0.3 uM): 12% at; inhibition at 0.3 µM (MOVAS cells [2]): 37%
N#Cc1cccc(C(=O)Nc2cnn(CC3CCCO3)c2)c1 (stereo not shown) [Compound 45, 3-cyano-N-(1-((tetrahydrofuran-2-yl)methyl)-1H-pyrazol-4-yl)benzamide]	59%	39.6 nM		Cytotoxicity assay LDH release (% of cytotoxicity) (MOVAS cells [1]; at 5 uM): 12% at; inhibition at 5 µM (MOVAS cells [2]; at 5 uM): 57%
